Measured values as given in ChEMBL document CHEMBL4665705 (J Med Chem, 2020).
≈ marks a conversion by molar mass, not a printed value.

How the values were obtained:
[1] = Oral bioavailability in Beagle dog; assay type: ADME, organism-based, Canis lupus familiaris; conditions: in vivo
[2] = target: Cytochrome P450 3A4 (Homo sapiens, UniProt P08684); test: Metabolism-dependent inhibition of CYP3A4 (unknown origin); assay type: ADME
[3] = Clearance in Beagle dog at 0.5 mg/kg, iv administered as 1 hr infusion on day 1 and day 7 to achieve a target dose of 1 mg/kg by LC-MS/MS analysis relative to liver blood flow; assay type: ADME, organism-based, Canis lupus familiaris; conditions: in vivo, 168 h, dose 0.5-1 mg/kg, time 7 day
[4] = Clearance in Wistar Han rat at 1 mg/kg, iv administered as 1 hr infusion or 3 mg/kg, po administered via gavage by LC-MS/MS analysis relative to liver blood flow; assay type: ADME, organism-based; conditions: in vivo
[5] = system: Blood; test: Inhibition of LPS-induced MCP1 production in human whole blood preincubated for 30 mins followed by LPS addition measured after 24 hrs by immunoassay; assay type: functional, tissue-based
[6] = target: Bromodomain testis-specific protein (Homo sapiens, UniProt Q58F21, Y66A); test: Displacement of Alexa Fluor 647 labelled ligand from 6His-Thr tagged BRDT BD2/BD1 Y66A mutant (1 to 397 residues) (unknown origin) measured after 30 mins by TR-FRET assay
[7] = target: Bromodomain-containing protein 3 (Homo sapiens, UniProt Q15059, Y348A); test: Displacement of Alexa Fluor 647 labelled ligand from 6His-Thr tagged BRD3 BD1/BD2 Y348A mutant (1 to 435 residues) (unknown origin) measured after 30 mins by TR-FRET assay
Sequence of Bromodomain-containing protein 3 (Homo sapiens, UniProt Q15059, Y348A) (Q15059 2-726 Y348A limits assumed): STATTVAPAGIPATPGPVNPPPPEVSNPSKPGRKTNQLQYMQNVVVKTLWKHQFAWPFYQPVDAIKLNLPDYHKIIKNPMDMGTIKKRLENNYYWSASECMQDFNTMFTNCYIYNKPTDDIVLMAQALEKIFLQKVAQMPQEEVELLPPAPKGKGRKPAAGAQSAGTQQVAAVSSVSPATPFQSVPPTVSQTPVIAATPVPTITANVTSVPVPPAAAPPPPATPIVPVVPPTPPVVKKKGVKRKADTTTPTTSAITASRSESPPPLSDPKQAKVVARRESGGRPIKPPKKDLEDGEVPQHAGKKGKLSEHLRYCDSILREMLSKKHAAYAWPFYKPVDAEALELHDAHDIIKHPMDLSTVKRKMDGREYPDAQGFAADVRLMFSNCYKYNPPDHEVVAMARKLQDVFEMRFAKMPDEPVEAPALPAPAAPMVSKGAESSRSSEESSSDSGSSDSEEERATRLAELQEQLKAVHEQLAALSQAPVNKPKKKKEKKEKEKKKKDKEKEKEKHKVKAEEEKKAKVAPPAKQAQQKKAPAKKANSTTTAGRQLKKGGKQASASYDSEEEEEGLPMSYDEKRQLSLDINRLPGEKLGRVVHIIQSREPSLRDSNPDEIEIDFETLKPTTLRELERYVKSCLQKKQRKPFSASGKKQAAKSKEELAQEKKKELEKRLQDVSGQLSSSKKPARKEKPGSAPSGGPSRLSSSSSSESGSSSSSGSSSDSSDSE

[8] = target: Bromodomain-containing protein 3 (Homo sapiens, UniProt Q15059, Y73A); test: Displacement of Alexa Fluor 647 labelled ligand from 6His-Thr tagged BRD3 BD2/BD1 Y73A mutant (1 to 435 residues) (unknown origin) measured after 30 mins by TR-FRET assay
Sequence of Bromodomain-containing protein 3 (Homo sapiens, UniProt Q15059, Y73A) (Q15059 2-726 Y73A limits assumed): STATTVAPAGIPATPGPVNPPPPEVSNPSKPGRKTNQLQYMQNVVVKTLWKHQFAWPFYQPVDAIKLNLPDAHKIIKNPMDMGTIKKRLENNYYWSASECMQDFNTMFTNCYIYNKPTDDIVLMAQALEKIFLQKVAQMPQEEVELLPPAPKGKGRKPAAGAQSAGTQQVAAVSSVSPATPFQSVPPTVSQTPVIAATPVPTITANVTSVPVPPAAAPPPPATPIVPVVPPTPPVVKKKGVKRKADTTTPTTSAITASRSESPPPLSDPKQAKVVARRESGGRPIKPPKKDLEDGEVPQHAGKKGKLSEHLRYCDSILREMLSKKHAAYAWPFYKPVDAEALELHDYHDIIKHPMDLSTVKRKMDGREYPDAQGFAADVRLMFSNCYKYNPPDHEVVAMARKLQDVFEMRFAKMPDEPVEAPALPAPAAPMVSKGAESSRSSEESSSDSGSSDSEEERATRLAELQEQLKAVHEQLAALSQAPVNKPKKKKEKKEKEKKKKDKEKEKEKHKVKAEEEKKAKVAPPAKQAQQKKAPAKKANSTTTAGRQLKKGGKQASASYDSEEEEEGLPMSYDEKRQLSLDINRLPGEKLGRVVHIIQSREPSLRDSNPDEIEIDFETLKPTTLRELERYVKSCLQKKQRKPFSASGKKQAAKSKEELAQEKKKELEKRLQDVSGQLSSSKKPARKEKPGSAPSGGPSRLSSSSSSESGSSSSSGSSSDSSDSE

[9] = target: Bromodomain-containing protein 2 (Homo sapiens, UniProt P25440, Y113A); test: Displacement of Alexa Fluor 647 labelled ligand from 6His-Thr tagged BRD2 BD2/BD1 Y113A mutant (1 to 473 residues) (unknown origin) measured after 30 mins by TR-FRET assay
Sequence of Bromodomain-containing protein 2 (Homo sapiens, UniProt P25440, Y113A) (P25440 whole entry Y113A, the tested form may be a part): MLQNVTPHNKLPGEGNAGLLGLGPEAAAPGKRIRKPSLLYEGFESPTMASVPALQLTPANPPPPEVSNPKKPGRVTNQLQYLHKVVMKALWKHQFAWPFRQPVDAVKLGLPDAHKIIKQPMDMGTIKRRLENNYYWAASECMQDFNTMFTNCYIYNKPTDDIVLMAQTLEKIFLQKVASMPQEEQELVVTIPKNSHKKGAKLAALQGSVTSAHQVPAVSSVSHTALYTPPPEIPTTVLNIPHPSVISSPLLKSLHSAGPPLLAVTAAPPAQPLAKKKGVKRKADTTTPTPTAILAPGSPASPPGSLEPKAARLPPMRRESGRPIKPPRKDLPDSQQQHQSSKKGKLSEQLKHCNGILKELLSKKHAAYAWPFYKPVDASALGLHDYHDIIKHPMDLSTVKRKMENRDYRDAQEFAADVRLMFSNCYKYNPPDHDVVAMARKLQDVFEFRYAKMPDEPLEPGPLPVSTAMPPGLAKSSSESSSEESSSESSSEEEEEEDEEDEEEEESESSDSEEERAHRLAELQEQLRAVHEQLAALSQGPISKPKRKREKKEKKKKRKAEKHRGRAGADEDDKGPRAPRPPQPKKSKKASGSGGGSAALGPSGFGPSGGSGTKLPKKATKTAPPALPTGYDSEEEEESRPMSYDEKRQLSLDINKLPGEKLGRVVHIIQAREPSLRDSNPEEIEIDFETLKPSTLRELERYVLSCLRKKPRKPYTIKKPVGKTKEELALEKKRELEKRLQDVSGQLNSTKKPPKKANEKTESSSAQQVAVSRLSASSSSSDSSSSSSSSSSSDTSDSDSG

[10] = target: Albumin (Homo sapiens, UniProt P02768); test: Binding affinity to HSA relative to control; assay type: ADME; conditions: isolated protein
Sequence of Albumin (P02768 whole entry): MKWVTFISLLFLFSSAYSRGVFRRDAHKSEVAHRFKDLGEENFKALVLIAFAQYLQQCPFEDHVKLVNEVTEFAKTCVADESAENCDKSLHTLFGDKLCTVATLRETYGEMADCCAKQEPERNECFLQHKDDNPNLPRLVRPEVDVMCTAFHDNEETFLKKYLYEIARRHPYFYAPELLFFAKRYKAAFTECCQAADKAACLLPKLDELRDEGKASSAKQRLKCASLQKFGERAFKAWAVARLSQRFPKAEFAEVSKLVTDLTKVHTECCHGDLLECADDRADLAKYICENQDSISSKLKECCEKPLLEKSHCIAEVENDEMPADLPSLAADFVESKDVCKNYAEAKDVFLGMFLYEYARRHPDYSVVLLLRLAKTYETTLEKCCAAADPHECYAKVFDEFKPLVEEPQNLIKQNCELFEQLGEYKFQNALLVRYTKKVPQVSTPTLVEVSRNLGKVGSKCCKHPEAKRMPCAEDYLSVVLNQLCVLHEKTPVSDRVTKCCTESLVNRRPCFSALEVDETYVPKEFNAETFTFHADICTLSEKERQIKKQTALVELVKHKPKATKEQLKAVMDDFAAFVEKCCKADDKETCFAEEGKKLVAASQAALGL

[11] = Solubility of the compound in pH 6.5 FaSSIF at 125 ug/ml measured after 16 hrs by HPLC analysis; assay type: physicochemical; conditions: dose 125 µg/ml
[12] = Fraction unbound in human blood measured after 4 hrs by LC-MS/MS analysis; assay type: ADME, tissue-based
[13] = Fraction unbound in Beagle dog blood measured after 4 hrs by LC-MS/MS analysis; assay type: ADME, tissue-based, Canis lupus familiaris
[14] = Fraction unbound in Wistar Han rat blood measured after 4 hrs by LC-MS/MS analysis; assay type: ADME, tissue-based
[15] = Half life in Beagle dog at 0.5 mg/kg, iv administered as 1 hr infusion on day 1 and day 7 to achieve a target dose of 1 mg/kg by LC-MS/MS analysis; assay type: ADME, organism-based, Canis lupus familiaris; conditions: in vivo, dose 0.5-1 mg/kg, time 7 day
[16] = Oral bioavailability in Wistar Han rat at 3 mg/kg by LC-MS/MS analysis; assay type: ADME, organism-based; conditions: in vivo
[17] = Volume of distribution at steady state in Beagle dog at 0.5 mg/kg, iv administered as 1 hr infusion on day 1 and day 7 to achieve a target dose of 1 mg/kg by LC-MS/MS analysis; assay type: ADME, organism-based, Canis lupus familiaris; conditions: in vivo, dose 0.5-1 mg/kg, time 7 day, read-out: Vdss
[18] = Half life in Wistar Han rat at 1 mg/kg, iv administered as 1 hr infusion or 3 mg/kg, po administered via gavage by LC-MS/MS analysis; assay type: ADME, organism-based; conditions: in vivo
[19] = Volume of distribution at steady state in Wistar Han rat at 1 mg/kg, iv administered as 1 hr infusion or 3 mg/kg, po administered via gavage by LC-MS/MS analysis; assay type: ADME, organism-based; conditions: in vivo, read-out: Vdss
[20] = Clearance in Beagle dog at 0.5 mg/kg, iv administered as 1 hr infusion on day 1 and day 7 to achieve a target dose of 1 mg/kg by LC-MS/MS analysis; assay type: ADME, organism-based, Canis lupus familiaris; conditions: in vivo, dose 0.5-1 mg/kg, time 7 day
[21] = Clearance in Wistar Han rat at 1 mg/kg, iv administered as 1 hr infusion or 3 mg/kg, po administered via gavage by LC-MS/MS analysis; assay type: ADME, organism-based; conditions: in vivo
[22] = Intrinsic clearance in human hepatocytes assessed per g tissue at 0.5 uM measured up to 60 mins by LC-MS/MS analysis; assay type: ADME, cell-based, Hepatocyte; conditions: 1 h, time <=45 min
[23] = Intrinsic clearance in Beagle dog hepatocytes assessed per g tissue at 0.5 uM measured up to 120 mins by LC-MS/MS analysis; assay type: ADME, cell-based, Canis lupus familiaris, Hepatocyte; conditions: 2 h
[24] = Intrinsic clearance in Wistar Han rat hepatocytes assessed per g tissue at 0.5 uM measured up to 60 mins by LC-MS/MS analysis; assay type: ADME, cell-based, Hepatocyte; conditions: 1 h, time <=45 min
[25] = target: Bromodomain-containing protein 2 (Homo sapiens, UniProt P25440, Y386A)
Sequence of Bromodomain-containing protein 2 (Homo sapiens, UniProt P25440, Y386A) (P25440 whole entry Y386A): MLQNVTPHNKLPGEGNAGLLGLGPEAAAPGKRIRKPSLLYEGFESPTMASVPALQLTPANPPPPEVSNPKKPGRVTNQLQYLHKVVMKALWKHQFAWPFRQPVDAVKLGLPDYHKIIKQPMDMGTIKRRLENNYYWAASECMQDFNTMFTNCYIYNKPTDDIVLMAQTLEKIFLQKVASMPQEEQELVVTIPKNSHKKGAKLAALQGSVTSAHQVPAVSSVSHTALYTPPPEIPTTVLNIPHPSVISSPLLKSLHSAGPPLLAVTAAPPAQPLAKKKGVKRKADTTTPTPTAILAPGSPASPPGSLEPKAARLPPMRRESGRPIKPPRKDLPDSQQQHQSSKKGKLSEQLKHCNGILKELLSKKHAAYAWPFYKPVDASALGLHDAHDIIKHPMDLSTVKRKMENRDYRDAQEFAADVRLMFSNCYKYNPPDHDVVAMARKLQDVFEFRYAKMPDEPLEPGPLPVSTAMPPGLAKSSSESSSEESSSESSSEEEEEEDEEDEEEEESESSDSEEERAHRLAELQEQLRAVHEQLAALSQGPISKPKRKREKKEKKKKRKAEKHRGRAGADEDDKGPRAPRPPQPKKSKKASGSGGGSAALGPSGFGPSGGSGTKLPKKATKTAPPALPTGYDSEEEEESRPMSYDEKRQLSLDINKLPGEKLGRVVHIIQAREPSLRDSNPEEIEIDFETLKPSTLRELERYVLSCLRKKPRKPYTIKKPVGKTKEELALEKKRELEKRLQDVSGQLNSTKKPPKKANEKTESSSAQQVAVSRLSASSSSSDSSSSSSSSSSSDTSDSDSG

[26] = buffer, pH 7.4
[27] = physchem; conditions: phosphate buffered saline, pH 7.4
[28] = in vitro; conditions: PAMPA, pH 7.4

Sequence of Cytochrome P450 3A4 (P08684 whole entry, the tested form may be a part): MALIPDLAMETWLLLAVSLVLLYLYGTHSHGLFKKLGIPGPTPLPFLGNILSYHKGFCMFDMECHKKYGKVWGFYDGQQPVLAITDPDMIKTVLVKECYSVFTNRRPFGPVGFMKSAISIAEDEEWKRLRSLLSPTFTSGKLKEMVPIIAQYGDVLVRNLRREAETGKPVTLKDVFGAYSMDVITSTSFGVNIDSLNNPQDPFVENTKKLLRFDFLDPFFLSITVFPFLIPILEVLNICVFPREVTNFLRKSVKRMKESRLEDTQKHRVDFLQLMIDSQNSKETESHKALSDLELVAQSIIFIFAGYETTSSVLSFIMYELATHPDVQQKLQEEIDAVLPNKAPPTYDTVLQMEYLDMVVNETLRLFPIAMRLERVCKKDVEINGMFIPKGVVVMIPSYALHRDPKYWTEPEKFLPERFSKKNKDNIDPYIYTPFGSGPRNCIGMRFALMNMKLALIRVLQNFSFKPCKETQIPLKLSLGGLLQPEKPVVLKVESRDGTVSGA

Molecule CC(=O)Nc1c(F)cc(C(=O)N[C@H]2CC[C@H](O)CC2)cc1O[C@@H](C)c1ccccc1 [GSK046] has a bioavailability [1] of 66%, an IC50 [2] greater than 39800 nM and a CL [3] of 36%. The CL [4] was 46%, the IC50 [5] was 31.6 nM and the IC50 [6] was 200 nM. The IC50 [7] was 39800 nM, the IC50 [8] was 100 nM and the IC50 [9] was 251 nM. The Activity [10] was 47%, the solubility at 16 h [11] was 996 µg/mL (≈ 2400 µM) and the fraction unbound at 4 h [12] was 0.32. It also gave a fraction unbound at 4 h [13] of 0.33, a fraction unbound at 4 h [14] of 0.44 and a half-life [15] of 42 min. The bioavailability [16] was 31%, the Vd [17] was 0.91 L/kg and the half-life [18] was 30 min. It also gave a Vd [19] of 0.91 L/kg, a clearance [20] of 20 mL/min/kg and a clearance [21] of 36 mL/min/kg. It also gave a CLH [22] of less than 0.45 mL/min, a CLH [23] of less than 1.26 mL/min and a CLH [24] of less than 0.8 mL/min. It also gave an IC50 [25] of 10000 nM, a CHI [26] of 2.8 and a solubility kinetic [27] of 91 µg/mL (≈ 220 µM). It also gave a Papp [28] of 1.6 ×10⁻⁶ cm/s.
